Converted amounts (≈) assume the structure as drawn. The source made the active and inactive calls. The rule behind the calls is not given here.

For series [1], the system named is Klebsiella pneumoniae. The series can be described thus: Potentiation of meropenem induced antibacterial activity against Klebsiella pneumoniae 5639 expressing VIM-24 assessed as meropenem MIC by CLSI based broth microdilution method. It is filed as functional. For orientation: Dilution methods test growth across graded concentrations, often in twofold steps.
The nature of series [2]: Stability in human plasma assessed as half life by HPLC analysis. It is filed as ADME, cell-free.
In series [3] the test system is Klebsiella pneumoniae. Nature of the series: Potentiation of meropenem induced antibacterial activity against Klebsiella pneumoniae 6907 expressing VIM-2 assessed as meropenem MIC by CLSI based broth microdilution method. The class given is functional.
In a further series the test system is Escherichia coli. The series can be described thus: Potentiation of meropenem induced antibacterial activity against Escherichia coli 3.68 expressing NDM-1 assessed as meropenem MIC by CLSI based broth microdilution method. The class given is functional.
Series [4] deals with Klebsiella pneumoniae. Nature of the series: Potentiation of meropenem induced antibacterial activity against Klebsiella pneumoniae 7.15 expressing NDM-1 assessed as meropenem MIC by CLSI based broth microdilution method. It is filed as functional.
In series [5] the test system is Enterobacter cloacae. Nature of the series: Potentiation of meropenem induced antibacterial activity against Enterobacter cloacae 6.31 expressing NDM-1 assessed as meropenem MIC by CLSI based broth microdilution method. It is filed as functional.
Series [6] in a line: Inhibition of his6-tagged SFH-1 (unknown origin) expressed in Escherichia coli BL21-DE3 incubated for 16 hrs. The arrangement: species or system Enzyme.
Series [7] is described as follows: Inhibition of his6-tagged VIM-2 (unknown origin) expressed in Escherichia coli BL21-DE3 incubated for 16 hrs.
Series [8] deals with Klebsiella pneumoniae. Nature of the series: Potentiation of meropenem induced antibacterial activity against Klebsiella pneumoniae LC82 expressing IMP-13 assessed as meropenem MIC by CLSI based broth microdilution method. The class given is functional.
The target in series [9] is Metallo-beta-lactamase type 2 (Bacteria, UniProt C7C422). The series can be described thus: Inhibition of his6-tagged NDM-1 (unknown origin) expressed in Escherichia coli BL21-DE3 incubated for 16 hrs.
The subject of series [10] is Klebsiella pneumoniae. Nature of the series: Potentiation of meropenem induced antibacterial activity against Klebsiella pneumoniae 1.41 expressing NDM-1 assessed as meropenem MIC by CLSI based broth microdilution method. It is filed as functional.
Series [11] can be described thus: Inhibition of his6-tagged IMP-1 (unknown origin) expressed in Escherichia coli BL21-DE3 incubated for 16 hrs. The arrangement: species or system Bacteria.
Series [12] concerns the target Metallo-beta-lactamase type 2 (Bacteria) (UniProt C7C422). Nature of the series: Inhibition of full length NDM-1 (unknown origin) expressed in Escherichia DH5alpha at 100 microg/ml measured at 1 to 5 hrs. Particulars: dose 100.0 µg/ml, time 1-5 hrs.
In series [13] the test system is Klebsiella pneumoniae. Nature of the series: Potentiation of meropenem induced antibacterial activity against Klebsiella pneumoniae 1.37 expressing NDM-1 assessed as meropenem MIC by CLSI based broth microdilution method. The class given is functional.
Series [14] relates to Providencia rettgeri. Nature of the series: Potentiation of meropenem induced antibacterial activity against Providencia rettgeri 1.27 expressing NDM-1 assessed as meropenem MIC by CLSI based broth microdilution method. It is filed as functional.
A short description of series [15]: Inhibition of his6-tagged L1 (unknown origin) expressed in Escherichia coli BL21-DE3 incubated for 16 hrs. The arrangement: species or system Enzyme inhibition.
Series [16] relates to Enterobacter cloacae. The series can be described thus: Potentiation of meropenem induced antibacterial activity against Enterobacter cloacae 1.28 expressing NDM-1 assessed as meropenem MIC by CLSI based broth microdilution method. It is filed as functional.
A further series has as its system L929. Nature of the series: Cytotoxicity against mouse L929 cells assessed as reduction in cell viability at 100 microg/ml incubated for 24 hrs by MTT assay. Particulars: l929, 24 h. The class given is toxicity, cell-based. (Formazan colour is commonly taken as a measure of viable cells.)
Series [17] deals with Klebsiella pneumoniae. Nature of the series: Antibacterial activity against Klebsiella pneumoniae 5639 assessed as inhibition of bacterial growth by CLSI based broth microdilution method. It is filed as functional.
Series [18] deals with Klebsiella pneumoniae. Nature of the series: Antibacterial activity against Klebsiella pneumoniae LC82 assessed as inhibition of bacterial growth by CLSI based broth microdilution method. The class given is functional.
Series [19] concerns Klebsiella pneumoniae. The series can be described thus: Antibacterial activity against Klebsiella pneumoniae 6907 assessed as inhibition of bacterial growth by CLSI based broth microdilution method. The class given is functional.
The test system of series [20] is Klebsiella pneumoniae. The series can be described thus: Antibacterial activity against Klebsiella pneumoniae 7.15 assessed as inhibition of bacterial growth by CLSI based broth microdilution method. It is filed as functional.
In series [21] the test system is Enterobacter cloacae. The series can be described thus: Antibacterial activity against Enterobacter cloacae 1.28 assessed as inhibition of bacterial growth by CLSI based broth microdilution method. It is filed as functional.
Series [22] concerns Klebsiella pneumoniae. The series can be described thus: Antibacterial activity against Klebsiella pneumoniae 1.37 assessed as inhibition of bacterial growth by CLSI based broth microdilution method. It is filed as functional.
Series [23] concerns Klebsiella pneumoniae. Nature of the series: Antibacterial activity against Klebsiella pneumoniae 1.41 assessed as inhibition of bacterial growth by CLSI based broth microdilution method. It is filed as functional.
Series [24] has as its system Enterobacter cloacae. Nature of the series: Antibacterial activity against Enterobacter cloacae 6.31 assessed as inhibition of bacterial growth by CLSI based broth microdilution method. It is filed as functional.
In series [25] the test system is Providencia rettgeri. Nature of the series: Antibacterial activity against Providencia rettgeri 1.27 assessed as inhibition of bacterial growth by CLSI based broth microdilution method. It is filed as functional.

Chain of Metallo-beta-lactamase type 2 (C7C422 whole entry): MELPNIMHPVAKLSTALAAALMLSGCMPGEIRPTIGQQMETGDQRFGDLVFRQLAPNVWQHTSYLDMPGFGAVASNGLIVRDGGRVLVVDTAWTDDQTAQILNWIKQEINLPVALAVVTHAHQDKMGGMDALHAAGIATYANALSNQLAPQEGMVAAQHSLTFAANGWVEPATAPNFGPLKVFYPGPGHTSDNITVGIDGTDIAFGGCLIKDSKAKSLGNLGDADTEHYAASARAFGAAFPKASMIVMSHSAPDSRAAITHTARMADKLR
Chain of Metallo-beta-lactamase type 2 (Bacteria) (C7C422 whole entry): as above

A word on the MIC: it is the lowest concentration that inhibits growth of the organism. What is called IC50 is the concentration at which inhibition is half-maximal. Regarding `SC[C@H]1SC[C@@H]2Sc3ccccc3N21` (racemic), the MIC is 0.125 µg/mL in the series on Klebsiella pneumoniae [1]; 0.125 µg/mL with Klebsiella pneumoniae [3]; 32 µg/mL with Escherichia coli; 32 µg/mL with Klebsiella pneumoniae [4]; 16 µg/mL in the series with Enterobacter cloacae [5]; 0.125 µg/mL with Klebsiella pneumoniae [8]. The MIC with Klebsiella pneumoniae [10] was determined as 8 µg/mL; in the series on Klebsiella pneumoniae [13], 16 µg/mL; with Providencia rettgeri [14] it was 32 µg/mL; with Enterobacter cloacae [16], 8 µg/mL. The t1/2 in series [2] was 2.62 h. For the same compound, the IC50 in series [6] (read-out: IC50) amounted to 1.4 µM; in series [7] (read-out: IC50) it was 0.063 µM; in [9] it was 0.29 µM; in series [11] (read-out: IC50), 0.088 µM; in series [15] (read-out: IC50), 0.67 µM. The inhibition entry in series [12] was “Active”. Also, the Activity entry in the series on L929 (dose 100 µg/ml) is recorded as “Non-Toxic”.
In the case of `Nc1ccccc1NC(=O)[C@@H]1CS[C@H]2CS[C@H](CS)N21`, the figures for the IC50 entry in series [6], in [9] and in [15] (read-out: IC50) were “Not Active”, 29 µM and 32 µM, respectively.
Regarding `COc1ccc(CNC(=O)[C@@H]2CS[C@H]3CS[C@H](CS)N32)cc1`, the values for the IC50 entry in series [6], in series [9] and in [15] (read-out: IC50) were “Not Active”, 52 µM and 24 µM, respectively.
For the compound `CC(C)(C)OC(=O)NCCOC(=O)[C@@H]1CS[C@H]2CS[C@H](CS)N21`, the concentration for half-maximal inhibition (IC50) entry in series [6] is “Not Active”; in series [9], 7.9 µM; in series [15] (read-out: IC50), 5.4 µM.
`O=C(NCc1ccccc1)[C@@H]1CS[C@H]2CS[C@H](CS)N21`: the IC50 result in series [6] is “Not Active”; in series [9], 7.7 µM; in series [15] (read-out: IC50) it was 8.9 µM.
For `Nc1nc(COC(=O)[C@@H]2CS[C@H]3CS[C@H](CS)N32)cs1` the same measures were “Not Active”, 27 µM and 30 µM.
Regarding `NCCOC(=O)[C@@H]1CS[C@H]2CS[C@H](CS)N21`, the results for the IC50 entry in [6], in series [9] and in [15] (read-out: IC50) were “Not Active”, 53 µM and 58 µM, respectively.
As for `O=C(O)[C@@H]1CS[C@H]2CS[C@H](CCS)N21`, the IC50 result was “Not Active” in series [6]; “Not Active” in [7]; 3.1 µM in series [9]; “Not Active” in series [11]; 12 µM in [15] (read-out: IC50).
Consider `CCOC(=O)[C@@H]1CS[C@H]2CS[C@H](CS)N21`, for which the IC50 amounted to 5.5 µM in series [6] (read-out: IC50); 0.17 µM in series [7] (read-out: IC50); 2.7 µM in series [9]; 0.26 µM in series [11] (read-out: IC50); 6.9 µM in series [15] (read-out: IC50).
As to `O=C(O)[C@@H]1CS[C@H]2CS[C@H](CS)N21`, in series [2], the t1/2 was 0.383 h. For the same compound, the IC50 in series [6] (read-out: IC50) worked out at 0.79 µM; in series [7] (read-out: IC50), 8.5 µM; in series [9], 13 µM; in series [11] (read-out: IC50), 17.3 µM; in [15] (read-out: IC50) it was 22 µM.
As for `C[C@@H](O)[C@H]1C(=O)N2C(C(=O)O)=C(S[C@@H]3CN[C@H](C(=O)N(C)C)C3)[C@H](C)[C@H]12` [MEROPENEM], the minimum inhibitory concentration (MIC) with Klebsiella pneumoniae [17] was 4 µg/mL (≈ 10.4 µM); in the series with Klebsiella pneumoniae [18], 1 µg/mL (≈ 2.61 µM); in the series with Klebsiella pneumoniae [19], 8 µg/mL (≈ 20.9 µM); in the series on Klebsiella pneumoniae [20], 128 µg/mL (≈ 334 µM); in the series on Enterobacter cloacae [21], 128 µg/mL (≈ 334 µM); with Klebsiella pneumoniae [22], 64 µg/mL (≈ 167 µM). The minimal inhibitory concentration (MIC) in the series on Klebsiella pneumoniae [23] amounted to 128 µg/mL (≈ 334 µM); with Enterobacter cloacae [24], 54 µg/mL (≈ 141 µM); in the series with Providencia rettgeri [25], 128 µg/mL (≈ 334 µM).
Regarding `SCC[C@H]1SC[C@@H]2SCCN21` (racemic), the IC50 in series [6] (read-out: IC50) was 55 µM; in [7] (read-out: IC50), 1.2 µM; in series [9], 8.3 µM; in [11] (read-out: IC50) it was 5.8 µM; in series [15] (read-out: IC50), 7.8 µM.
As to `SC[C@H]1SC[C@@H]2SCCN21` (racemic), the IC50 in series [6] (read-out: IC50) came out at 7.5 µM; in series [7] (read-out: IC50), 0.88 µM; in [9] it was 1.2 µM; in [11] (read-out: IC50), 1.09 µM; in series [15] (read-out: IC50), 4.9 µM.
On to `CCOC(=O)[C@]12CS[C@H](CS)N1[C@H](C(=O)O)CS2`, for which the IC50 entry was “Not Active” in series [6]; “Not Active” in series [7]; 13 µM in series [9]; “Not Active” in series [11]; “Not Active” in [15].
As to `O=C(Nc1ccccc1)[C@@H]1CS[C@H]2CS[C@H](CS)N21`, the values for the IC50 result in series [6], in series [9] and in series [15] (read-out: IC50) were “Not Active”, 20 µM and 15 µM, respectively.
Turning to `SC[C@H]1SC[C@@H]2Nc3ccccc3N21` (relative stereo), in [2], the t1/2 was 2.45 h. Further, the IC50 came out at 3.7 µM in series [6] (read-out: IC50), 1.4 µM in [7] (read-out: IC50), 1.01 µM in series [11] (read-out: IC50) and 0.62 µM in series [15] (read-out: IC50). In addition, in the series on L929 (at 100 µg/mL), the Activity turned out to be 20%.
